Assay results published in patent US8030498B2, “Benzoylpyrazole compounds and herbicides containing them” (Ishihara Sangyo Kaisha, Ltd., priority 2005, dated 2011).

Legend:
soybean = test: Test Example 2: soil application on the day after sowing, growth inhibition rate, soybean; assay type: in vivo, Glycine max Merr.; conditions: 250 g/ha active ingredient, observed on 19th to 24th day
Outline: (§1)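 Upland soil pots sown with crop and weed seeds; next day wettable powder or emulsifiable concentrate at prescribed active-ingredient amounts, diluted to 500 L/ha water, sprayed onto soil. Growth inhibition scored visually 19–24 days later, 0 (as untreated) to 100% (complete kill).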

[1] = test system: soybean (Glycine max Merr.); test: Test Example 1: foliar treatment, growth inhibition rate, soybean; assay type: in vivo; conditions: visually observed 17th to 23rd day after application
Outline: (§2)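 Visual scoring of growth inhibition, 0% (untreated) to 100% (complete kill), on days 17–23 following post-emergence spray of formulated compound in water (500 L/ha, 0.1 vol % spreader); plants treated at set leaf stages, e.g. corn 2.0–3.5, wheat 1.7–3.4.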

greenfoxtail = test: Test Example 2: soil application on the day after sowing, growth inhibition rate, greenfoxtail; assay type: in vivo, Setaria viridis L.; conditions: 250 g/ha active ingredient, observed on 19th to 24th day
Outline: as §1

[2] = test system: prickly sida (Sida spinosa L.); test: Test Example 1: foliar treatment, growth inhibition rate, prickly sida; assay type: in vivo; conditions: visually observed 17th to 23rd day after application
Outline: as §2

redroot pigweed = test: Test Example 2: soil application on the day after sowing, growth inhibition rate, redroot pigweed; assay type: in vivo, Amaranthus retroflexus L.; conditions: 250 g/ha active ingredient, observed on 19th to 24th day
Outline: as §1

velvetleaf = test: Test Example 2: soil application on the day after sowing, growth inhibition rate, velvetleaf; assay type: in vivo, Abutilon theophrasti MEDIC.; conditions: 250 g/ha active ingredient, observed on 19th to 24th day
Outline: as §1

wheat (Triticum spp.) = test: Test Example 1: foliar treatment, growth inhibition rate, wheat; assay type: in vivo; conditions: visually observed 17th to 23rd day after application
Outline: (§3)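 Visual growth inhibition rating, 0% (as untreated) to 100% (complete kill), taken 17–23 d after foliar spray. Compound was formulated as wettable powder or EC, diluted to 500 L/ha water with 0.1 vol % agricultural spreader, and applied to pot-grown seedlings of corn (2.0–3.5 leaf), greenfoxtail (1.0–3.0), rice (1.0–2.5) and wheat (1.7–3.4).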

corn = test: Test Example 2: soil application on the day after sowing, growth inhibition rate, corn; assay type: in vivo, Zea mays L.; conditions: 250 g/ha active ingredient, observed on 19th to 24th day
Outline: as §1

corn (Zea mays L.) = test: Test Example 1: foliar treatment, growth inhibition rate, corn; assay type: in vivo; conditions: visually observed 17th to 23rd day after application
Outline: as §3

[3] = test system: barnyardgrass (Echinochloa crus-galli L.); test: Test Example 1: foliar treatment, growth inhibition rate, barnyardgrass; assay type: in vivo; conditions: visually observed 17th to 23rd day after application
Outline: as §2

rice (Oryza sativa L.) = test: Test Example 1: foliar treatment, growth inhibition rate, rice; assay type: in vivo; conditions: visually observed 17th to 23rd day after application
Outline: as §3

wheat = test: Test Example 2: soil application on the day after sowing, growth inhibition rate, wheat; assay type: in vivo, Triticum spp.; conditions: 250 g/ha active ingredient, observed on 19th to 24th day
Outline: as §1

prickly sida = test: Test Example 2: soil application on the day after sowing, growth inhibition rate, prickly sida; assay type: in vivo, Sida spinosa L.; conditions: 250 g/ha active ingredient, observed on 19th to 24th day
Outline: as §1

[4] = test system: velvetleaf (Abutilon theophrasti MEDIC.); test: Test Example 1: foliar treatment, growth inhibition rate, velvetleaf; assay type: in vivo; conditions: visually observed 17th to 23rd day after application
Outline: as §2

[5] = test system: greenfoxtail (Setaria viridis L.); test: Test Example 1: foliar treatment, growth inhibition rate, greenfoxtail; assay type: in vivo; conditions: visually observed 17th to 23rd day after application
Outline: as §3

rice = test: Test Example 2: soil application on the day after sowing, growth inhibition rate, rice; assay type: in vivo, Oryza sativa L.; conditions: 250 g/ha active ingredient, observed on 19th to 24th day
Outline: as §1

[6] = test system: crabgrass (Digitaria sanguinalis L.); test: Test Example 1: foliar treatment, growth inhibition rate, crabgrass; assay type: in vivo; conditions: visually observed 17th to 23rd day after application
Outline: as §2

barnyardgrass = test: Test Example 2: soil application on the day after sowing, growth inhibition rate, barnyardgrass; assay type: in vivo, Echinochloa crus-galli L.; conditions: 250 g/ha active ingredient, observed on 19th to 24th day
Outline: as §1

[7] = test system: redroot pigweed (Amaranthus retroflexus L.); test: Test Example 1: foliar treatment, growth inhibition rate, redroot pigweed; assay type: in vivo; conditions: visually observed 17th to 23rd day after application
Outline: as §2

crabgrass = test: Test Example 2: soil application on the day after sowing, growth inhibition rate, crabgrass; assay type: in vivo, Digitaria sanguinalis L.; conditions: 250 g/ha active ingredient, observed on 19th to 24th day
Outline: as §1

Compound	Growth inhibition rate (%) Soybean (soybean) [%]	Growth inhibition rate (%) Soybean ([1]; 31 g/ha active ingredient) [%]	Growth inhibition rate (%) Greenfoxtail (greenfoxtail) [%]	Growth inhibition rate (%) Prickly sida ([2]; 31 g/ha active ingredient) [%]	Growth inhibition rate (%) redroot pigweed (redroot pigweed) [%]	Growth inhibition rate (%) Velvetleaf (velvetleaf) [%]	Growth inhibition rate (%) Wheat (wheat (Triticum spp.); 31 g/ha active ingredient) [%]	Growth inhibition rate (%) Corn (corn) [%]	Growth inhibition rate (%) Corn (corn (Zea mays L.); 31 g/ha active ingredient) [%]	Growth inhibition rate (%) Barnyardgrass ([3]; 31 g/ha active ingredient) [%]	Growth inhibition rate (%) Rice (rice (Oryza sativa L.); 31 g/ha active ingredient) [%]	Growth inhibition rate (%) Wheat (wheat) [%]	Growth inhibition rate (%) Prickly sida (prickly sida) [%]	Growth inhibition rate (%) Velvetleaf ([4]; 31 g/ha active ingredient) [%]	Growth inhibition rate (%) Greenfoxtail ([5]; 31 g/ha active ingredient) [%]	Growth inhibition rate (%) Rice (rice) [%]	Growth inhibition rate (%) Crabgrass ([6]; 31 g/ha active ingredient) [%]	Growth inhibition rate (%) Barnyardgrass (barnyardgrass) [%]	Growth inhibition rate (%) redroot pigweed ([7]; 31 g/ha active ingredient) [%]	Growth inhibition rate (%) Crabgrass (crabgrass) [%]	further results
CCSC(=O)Oc1c(C(=O)c2ccc(S(C)(=O)=O)c(OCCCOC)c2C)cnn1C [compound 218]	0	95	90	70	100	30	10	0	0	100	98	0	50	90	95	80	100	90	100	80	–
CCCSC(=O)Oc1c(C(=O)c2ccc(S(C)(=O)=O)c(OCCOC)c2C)cnn1C [compound 219]	0	100	100	70	100	100	0	0	0	100	80	0	80	100	100	95	100	100	100	100	–
CCC(C)SC(=O)Oc1c(C(=O)c2ccc(S(C)(=O)=O)c(C(=O)OC)c2Cl)cnn1CC (centres unmarked) [compound 220]	0	–	100	–	100	95	–	0	–	–	–	0	95	–	–	100	–	95	–	95	Growth inhibition rate (%) Soybean ([1]; 63 g/ha active ingredient): 100%; Growth inhibition rate (%) Prickly sida ([2]; 63 g/ha active ingredient): 90%; Growth inhibition rate (%) Wheat (wheat (Triticum spp.); 63 g/ha active ingredient): 0%; Growth inhibition rate (%) Corn (corn (Zea mays L.); 63 g/ha active ingredient): 0%; Growth inhibition rate (%) Barnyardgrass ([3]; 63 g/ha active ingredient): 100%; Growth inhibition rate (%) Rice (rice (Oryza sativa L.); 63 g/ha active ingredient): 80%; Growth inhibition rate (%) Velvetleaf ([4]; 63 g/ha active ingredient): 90%; Growth inhibition rate (%) Greenfoxtail ([5]; 63 g/ha active ingredient): 70%; Growth inhibition rate (%) Crabgrass ([6]; 63 g/ha active ingredient): 60%; Growth inhibition rate (%) redroot pigweed ([7]; 63 g/ha active ingredient): 100%
CCSC(=O)Oc1c(C(=O)c2ccc(S(C)(=O)=O)c(OCCC3OCCO3)c2Cl)cnn1CC [compound 221]	0	–	70	–	100	60	–	0	–	–	–	0	60	–	–	80	–	80	–	100	Growth inhibition rate (%) Soybean ([1]; 63 g/ha active ingredient): 100%; Growth inhibition rate (%) Prickly sida ([2]; 63 g/ha active ingredient): 40%; Growth inhibition rate (%) Wheat (wheat (Triticum spp.); 63 g/ha active ingredient): 0%; Growth inhibition rate (%) Corn (corn (Zea mays L.); 63 g/ha active ingredient): 0%; Growth inhibition rate (%) Barnyardgrass ([3]; 63 g/ha active ingredient): 100%; Growth inhibition rate (%) Rice (rice (Oryza sativa L.); 63 g/ha active ingredient): 20%; Growth inhibition rate (%) Velvetleaf ([4]; 63 g/ha active ingredient): 60%; Growth inhibition rate (%) Greenfoxtail ([5]; 63 g/ha active ingredient): 50%; Growth inhibition rate (%) Crabgrass ([6]; 63 g/ha active ingredient): 50%; Growth inhibition rate (%) redroot pigweed ([7]; 63 g/ha active ingredient): 80%
C#CCOc1c(S(C)(=O)=O)ccc(C(=O)c2cnn(C)c2OC(=O)SCC)c1C [compound 222]	0	100	80	30	100	80	0	0	0	90	70	0	50	60	80	90	70	95	100	100	–
CCSC(=O)Oc1c(C(=O)c2ccc(S(C)(=O)=O)c(COC3CCOC3)c2C)cnn1C (centres unmarked) [compound 223]	0	100	70	70	90	80	0	0	0	100	70	0	60	95	90	40	100	70	90	100	–
CCCCCCCc1c(S(C)(=O)=O)ccc(C(=O)c2cnn(C)c2OC(=O)SCC)c1C [compound 225]	0	50	0	0	30	0	0	0	0	30	0	0	0	0	20	0	0	0	0	0	–
